Numbers after ± are expanded uncertainties.
Columns and labels:
[1] = Crystal; DTA
[2] = Molar enthalpy of transition or fusion; conditions: Crystal; DSC

Q: For `COc1cc(O)c2c(c1)oc(=O)c1c3cc(O)c(O)cc3oc21` [wedelolactone], which Normal melting temperature [1] is on record?
A: 316.37 ± 24 °C

Q: What about the “Molar enthalpy of transition or fusion” value [2] of the same compound?
A: 10.9 ± 0.478 kcal/mol

From the NIST ThermoML archive (doi:10.1016/j.fluid.2014.10.031)
